The target of this assay is Complement factor D (Homo sapiens, UniProt P00746). Kind of assay: Human Factor D Assay: Human Factor D (purified from human serum, Complement Technology, Inc.) at 80 nM final concentration is incubated with test compound at various concentrations for 5 min at room temperature in 50 mM Tris, 1M NaCl, pH 7.5. A synthetic substrate Z-L-Lys-SBzl and DTNB (Ellman's reagent) are added to final concentrations of 100 μM each. Absorbance at 405 nm (A405) is recorded at 30 second intervals for 30 min using a microplate spectrophotometer. IC50 values are calculated by nonlinear regression of Complement Factor D reaction rates as a function of test compound concentration.

Bounds are passed on as bounds.

Chain of Complement factor D (P00746 whole entry): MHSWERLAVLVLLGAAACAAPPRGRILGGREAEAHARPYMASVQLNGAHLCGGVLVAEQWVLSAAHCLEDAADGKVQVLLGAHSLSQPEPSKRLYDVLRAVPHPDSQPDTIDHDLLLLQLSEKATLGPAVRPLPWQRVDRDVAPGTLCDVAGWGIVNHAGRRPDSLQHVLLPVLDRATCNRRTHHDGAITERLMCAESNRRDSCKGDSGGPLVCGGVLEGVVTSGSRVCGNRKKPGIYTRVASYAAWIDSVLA

One may read the IC50 as the concentration needed to halve the response being measured. On to `CC(=O)c1nn(CC(=O)N2[C@H](C(=O)Nc3cccc(Br)n3)C[C@@]3(C)C[C@@H]23)c2c(C)cccc12`, for which the IC50 was less than 1000 nM.

`CC(=O)c1nn(CC(=O)N2[C@H](C(=O)Nc3nc(Br)ccc3C)C[C@@]3(C)C[C@@H]23)c2c(C)cccc12`: the IC50 was less than 1000 nM.

As to `CC(=O)c1nn(CC(=O)N2[C@H](C(=O)Nc3nc(Br)ccc3C)C[C@@]3(C)C[C@@H]23)c2ccc(N)cc12`, the IC50 is less than 1000 nM.

On to `CC(=O)c1nn(CC(=O)N2[C@H](C(=O)Nc3cccc(Br)n3)C[C@@]3(C)C[C@@H]23)c2ccc(NC(=O)N3CCC(F)(F)C3)cc12`, for which the IC50 was less than 1000 nM.

Regarding `CC(=O)c1nn(CC(=O)N2C[C@H](F)C[C@H]2C(=O)Nc2cccc(Br)n2)c2ccc(C3OCC(N)CO3)cc12` (stereo partly specified), the IC50 was less than 1000 nM.

As to `CC(=O)c1nn(CC(=O)N2[C@H](C(=O)Nc3nc(Br)ccc3C)C[C@@]3(C)C[C@@H]23)c2ccc(N(C)C)cc12`, the IC50 was less than 1000 nM.
